From ChEMBL document CHEMBL3351299, “Structural insights on carbonic anhydrase inhibitory action, isoform selectivity, and potency of sulfonamides and coumarins incorporating arylsulfonylureido groups” (J Med Chem, 2014) come the findings set out here.

The Ki is a dissociation constant, usually derived from enzyme kinetics or from competition with a known ligand.

In one experiment the target is Carbonic anhydrase 1 (Homo sapiens, UniProt P00915). As to the kind of experiment: Inhibition of human recombinant carbonic anhydrase 1 preincubated for 15 mins by stopped flow CO2 hydration method.
A further experiment deals with Carbonic anhydrase 9 (Homo sapiens, UniProt Q16790).
The target in a further experiment is Carbonic anhydrase 12 (Homo sapiens, UniProt O43570). Nature of the experiment: Inhibition of human recombinant carbonic anhydrase 12 preincubated for 15 mins by stopped flow CO2 hydration method.
Sequence of Carbonic anhydrase 12 (O43570 whole entry): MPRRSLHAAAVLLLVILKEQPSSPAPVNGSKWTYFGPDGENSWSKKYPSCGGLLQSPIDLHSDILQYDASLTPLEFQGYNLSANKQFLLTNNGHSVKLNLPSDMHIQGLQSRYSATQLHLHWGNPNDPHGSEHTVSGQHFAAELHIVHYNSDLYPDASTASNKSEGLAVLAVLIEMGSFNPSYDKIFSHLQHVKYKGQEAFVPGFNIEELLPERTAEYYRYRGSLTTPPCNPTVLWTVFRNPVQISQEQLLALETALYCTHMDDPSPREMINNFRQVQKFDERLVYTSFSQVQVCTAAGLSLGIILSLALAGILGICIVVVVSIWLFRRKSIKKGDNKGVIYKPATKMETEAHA

Sequence of Carbonic anhydrase 1 (P00915 whole entry): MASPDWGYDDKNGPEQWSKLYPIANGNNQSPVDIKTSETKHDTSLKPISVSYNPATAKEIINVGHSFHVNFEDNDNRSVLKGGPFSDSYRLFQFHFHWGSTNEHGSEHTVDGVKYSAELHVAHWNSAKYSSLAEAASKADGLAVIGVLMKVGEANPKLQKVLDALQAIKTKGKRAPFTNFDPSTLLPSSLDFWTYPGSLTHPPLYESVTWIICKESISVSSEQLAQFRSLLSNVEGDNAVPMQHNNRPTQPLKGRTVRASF

For `Cc1cc(=O)oc2cc(NC(=O)NS(=O)(=O)c3ccc(F)cc3)ccc12`, the Ki at Carbonic anhydrase 1 is > 10000 nM; on Carbonic anhydrase 9, 23.1 nM; at Carbonic anhydrase 12 it was 7.7 nM.

Regarding `Cc1ccc(S(=O)(=O)NC(=O)Nc2ccc3c(C)cc(=O)oc3c2)cc1`, the Ki at Carbonic anhydrase 1 was > 10000 nM; on Carbonic anhydrase 12, 9.4 nM.

`Cc1ccc(S(=O)(=O)NC(=O)NCCc2ccc(S(N)(=O)=O)cc2)cc1`: the Ki at Carbonic anhydrase 1 turned out to be 67.1 nM; on Carbonic anhydrase 9, 9.2 nM; at Carbonic anhydrase 12, 6 nM.

Consider `Cc1ccccc1S(=O)(=O)NC(=O)NCCc1ccc(S(N)(=O)=O)cc1`, for which the inhibition constant Ki on Carbonic anhydrase 1 came to 64.2 nM; at Carbonic anhydrase 12, 6.4 nM.

For `NS(=O)(=O)c1ccc(CCNC(=O)NS(=O)(=O)c2ccccc2Cl)cc1`, the Ki was found to be 52.8 nM at Carbonic anhydrase 1, 78.9 nM on Carbonic anhydrase 9 and 5.1 nM at Carbonic anhydrase 12.

Turning to `NS(=O)(=O)c1ccc(CCNC(=O)NS(=O)(=O)c2ccccc2)cc1`, the figures for the Ki on Carbonic anhydrase 1, at Carbonic anhydrase 9 and on Carbonic anhydrase 12 were 21.6 nM, 9.6 nM and 5.9 nM, respectively.

In the case of `Cc1cc(=O)oc2cc(NC(=O)NS(=O)(=O)c3ccccc3Cl)ccc12`, the values for the Ki at Carbonic anhydrase 1, on Carbonic anhydrase 9 and on Carbonic anhydrase 12 were 2380 nM, 87.8 nM and 7.6 nM, respectively.

As to `Cc1ccccc1S(=O)(=O)NC(=O)Nc1ccc2c(C)cc(=O)oc2c1`, the Ki at Carbonic anhydrase 1 was found to be 4970 nM; on Carbonic anhydrase 12, 8.9 nM.

`NS(=O)(=O)c1ccc(CCNC(=O)NS(=O)(=O)c2ccc(F)cc2)cc1`: the Ki at Carbonic anhydrase 1 is 82.6 nM; at Carbonic anhydrase 9 it was 68.4 nM; at Carbonic anhydrase 12 it was 6.8 nM.

For the molecule `NS(=O)(=O)c1ccc(CCNC(=O)NS(=O)(=O)c2ccc(Cl)cc2)cc1`, the figures for the Ki at Carbonic anhydrase 1, at Carbonic anhydrase 9 and at Carbonic anhydrase 12 were 57.8 nM, 9.7 nM and 5.6 nM, respectively.

Consider `Cc1cc(=O)oc2cc(NC(=O)NS(=O)(=O)c3ccccc3)ccc12`, for which the Ki is > 10000 nM at Carbonic anhydrase 1, 90.7 nM on Carbonic anhydrase 9 and 68.5 nM at Carbonic anhydrase 12.

Turning to `Cc1cc(=O)oc2cc(NC(=O)NS(=O)(=O)c3ccc(Cl)cc3)ccc12`, the Ki on Carbonic anhydrase 1 came out at 5730 nM.
